A word on the IC50: it is the concentration that gives 50% inhibition.

SMILES strings stand for the structures.

The target in the assay is human P2X3 receptor (Homo sapiens (Human), UniProt P56373). The assay is described as follows: P2X3 receptor inhibition, ATP-evoked Fluo-3 calcium fluorescence (FDSS 3000). Particulars: C6BU-1 cell transfected with human P2X3 receptor gene; ATP-evoked Fluo-3 fluorescence. The assay is classed as cell-based. How it is done:
Stably expressing cell line (C6BU-1 cell transfected with human P2X3 receptor gene (GenBank accession number Y07683)) was used. The cells were seeded in a 96-well microtiter plate at a concentration of 8000 cells/well and cultured in the medium (8.3% fetal bovine serum, 8.3% horse serum, 1% antibiotic and antifungal in DMEM) for one day at 37° C. under 5% carbon dioxide atmosphere. The medium was replaced with 4 μM Fluo-3-AM solution (pH7.5) containing 20 mM HEPES, 137 mM NaCl, 2.7 mM KCl, 0.9 mM MgCl2, 5.0 mM CaCl2, 5.6 mM D-glucose, 2.5 mM probenecid, 10% BSA, and 0.08% Pluronic F-127, and incubated at 37° C. under 5% dioxide carbon atmosphere for one hour. The plate was washed with washing buffer (20 mM HEPES, 137 mM NaCl, 2.7 mM KCl, 0.9 mM MgCl2, 5.0 mM CaCl2, 5.6 mM D-glucose, 2.5 mM probenecid, pH7.5), and each well was added with 40 μL of this buffer. The plate was placed in High-Throughput Screening System FDSS 3000 (Hamamatsu Photonics K.K.). Measurement of fluorescence intensity by FDSS 3000 was started, and 40 μL of DMSO solutions containing different concentrations of the test compound as prepared by dilution with dilution buffer (20 mM HEPES, 137 mM NaCl, 2.7 mM KCl, 0.9 mM MgCl2, 5.0 mM CaCl2, 5.6 mM D-glucose, 2.5 mM probenecid, 0.1% Pluronic F-127, pH7.5) were dispensed to each well through the built-in automatic dispenser. Five minutes after, 40 nM ATP solution (50 μL) prepared by dilution with the dilution buffer was dispensed through the built-in automatic dispenser, and the measurement of fluorescence intensity was continued for 3 min. For each well, the specific maximum fluorescence intensity was calculated as the ratio of the maximum fluorescence intensity after addition of the ATP solution to the fluorescence intensity at the starting of the measurement. […] FDSS software (Hamamatsu Photonics K.K.) was used for calculation of the specific maximum fluorescence intensity. IC50 was calculated using Microsoft™ Excel™ (Microsoft Corporation) and XLfit™ (ID Business Solutions Ltd.).

human P2X3 receptor, sequence (P56373 whole entry): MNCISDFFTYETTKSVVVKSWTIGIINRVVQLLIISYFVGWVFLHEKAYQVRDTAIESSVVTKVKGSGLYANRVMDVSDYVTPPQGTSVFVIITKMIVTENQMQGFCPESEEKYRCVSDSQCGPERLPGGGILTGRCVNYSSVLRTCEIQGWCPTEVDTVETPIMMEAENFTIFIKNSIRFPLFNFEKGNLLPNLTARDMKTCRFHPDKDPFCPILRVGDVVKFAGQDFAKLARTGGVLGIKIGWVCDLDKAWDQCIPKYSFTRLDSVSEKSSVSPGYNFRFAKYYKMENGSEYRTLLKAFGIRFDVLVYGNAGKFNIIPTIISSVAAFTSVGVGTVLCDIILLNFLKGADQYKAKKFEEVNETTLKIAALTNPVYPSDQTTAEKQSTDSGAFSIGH

`CC(C)CC(=O)C1=C(O)C(=O)N(c2ccc(-c3ccon3)cc2)C1c1ccccc1OC(C)C` (stereo not shown) [Compound I-306]: the IC50 was 54 nM.

For the molecule `CC(C)(C)C(=O)C1=C(O)C(=O)N(c2ccc(-c3ccsc3)cc2)C1c1cccc[n+]1[O-]` (stereo not shown) [Compound I-104], the IC50 was 424 nM.

Consider `COCCOCc1ncccc1C1c2c(C(C)(C)C)n[nH]c2C(=O)N1c1ccc(-c2ccsc2)cc1` (stereo not shown) [II-277], for which the IC50 worked out at 274 nM.

Consider `COc1ccccc1C1c2c(C(C)(CO)CO)n[nH]c2C(=O)N1c1ccc(-c2ccon2)cc1` (stereo not shown) [II-258], for which the IC50 stood at 304 nM.

Turning to `Cc1cc(-c2ccc(N3C(=O)C(O)=C(C(=O)CC(C)C)C3c3ccccc3OC(F)F)cc2)on1` (stereo not shown) [Compound I-341], the IC50 was 508 nM.

Take `COCc1ccccc1C1C(C(=O)C(C)C)=C(O)C(=O)N1c1ccc2sc(C)nc2c1` (stereo not shown) [Compound I-385]: the IC50 is 227 nM.

For the molecule `CSc1ccc(N2C(=O)C(O)=C(C(=O)C(C)(C)C)C2c2cccnc2OCCO)cc1` (stereo not shown) [Compound I-171], the IC50 turned out to be 610 nM.

In the case of `CC(C)(C)c1n[nH]c2c1C(c1ccccc1OCC#N)N(c1ccc(-c3ccsc3)cc1)C2=O` (stereo not shown) [II-173], the IC50 came out at 4 nM.

Consider `COCCOc1ncccc1C1c2c(C(C)(C)C)n[nH]c2C(=O)N1c1ccc(-c2ccoc2)cc1` (stereo not shown) [II-038], for which the IC50 was found to be 14 nM.

Take `Cc1cc(-c2ccc(N3C(=O)C(O)=C(C(=O)CC(C)C)C3c3ccccc3OC(F)(F)F)cc2)on1` (stereo not shown) [Compound I-344]: the 50% inhibitory concentration (IC50) worked out at 594 nM.

For `COc1ncccc1C1C(C(=O)CC(C)C)=C(O)C(=O)N1c1ccc(-c2ccoc2)cc1` (stereo not shown) [Compound I-340], the IC50 worked out at 336 nM.

With `CC(C)(C)c1n[nH]c2c1C(c1ccccc1OCCO)N(c1ccc(-c3ccsc3)cc1)C2=O` (stereo not shown) [II-104], the IC50 was 3 nM.

Regarding `COC(=O)C(C)(C)CC(=O)C1=C(O)C(=O)N(c2ccc(-c3ccsc3)cc2)C1c1ccccc1OC` (stereo not shown) [Compound I-556], the IC50 is 32 nM.

For the molecule `COCCOc1ccccc1C1C(C(=O)CC(C)C)=C(O)C(=O)N1c1ccc(-c2cc(C)no2)cc1` (stereo not shown) [Compound I-346], the IC50 is 677 nM.

Consider `CC(C)Oc1ccccc1C1C(C(=O)C2CCCC2)=C(O)C(=O)N1c1ccc(-c2ccon2)cc1` (stereo not shown) [Compound I-512], for which the IC50 came out at 62 nM.

Consider `Cc1nc(-c2ccc(N3C(=O)C(O)=C(C(=O)C(C)C)C3c3ccccc3OC3CCOCC3)cc2)no1` (stereo not shown) [Compound I-502], for which the IC50 turned out to be 67 nM.

As for `COCCCOc1ccccc1C1C(C(=O)CC(C)C)=C(O)C(=O)N1c1ccc(-c2noc(C)n2)cc1` (stereo not shown) [Compound I-492], the IC50 was 104 nM.

With `COCc1ncccc1C1c2c(C(C)C)n[nH]c2C(=O)N1c1ccc(-c2ccsc2)cc1` (stereo not shown) [II-133], the half-maximal inhibitory concentration (IC50) came to 116 nM.

Regarding `CC(C)(C)C(=O)C1=C(O)C(=O)N(c2ccc(-c3ccco3)cc2)C1c1cccnc1OCCO` (stereo not shown) [Compound I-173], the IC50 was 137 nM.

As to `COc1ccccc1C1c2c(C(F)(F)F)n[nH]c2C(=O)N1c1ccc(-c2ccon2)cc1` (stereo not shown) [II-148], the half-maximal inhibitory concentration (IC50) is 311 nM.

On to `COc1ccc(C2C(C(=O)C(C)C)=C(O)C(=O)N2c2ccc(-c3ccsc3)cc2)cc1` (stereo not shown) [Compound I-285], for which the IC50 turned out to be 648 nM.

For `CC(C)(CO)c1n[nH]c2c1C(c1ccccn1)N(c1ccc(-c3ccsc3)cc1)C2=O` (stereo not shown) [II-234], the IC50 was 130 nM.

With `COCc1ccccc1C1C(C(=O)CC2CCCC2)=C(O)C(=O)N1c1ccc(-c2ccsc2)cc1` (stereo not shown) [Compound I-439], the IC50 came to 116 nM.

For the molecule `COCCOc1cc(F)ccc1C1C(C(=O)C(C)C)=C(O)C(=O)N1c1ccc(-c2ccsc2)cc1` (stereo not shown) [Compound I-363], the IC50 amounted to 7 nM.

For the molecule `CCOC(=O)C(C)(C)C(=O)C1=C(O)C(=O)N(c2ccc(-c3csc(C)c3)cc2)C1c1ccccc1OC` (stereo not shown) [Compound I-470], the concentration for half-maximal inhibition (IC50) was found to be 972 nM.

As for `COCCOc1ccccc1C1c2c(C(C)(C)C)n[nH]c2C(=O)N1c1ccc(-c2ccon2)cc1` (stereo not shown) [II-018], the IC50 amounted to 22 nM.

For the molecule `CC(C)C(=O)C1=C(O)C(=O)N(c2ccc(-c3ccco3)cc2)C1c1ccccc1OCCO` (stereo not shown) [Compound I-225], the IC50 was determined as 65 nM.

Consider `COc1ncccc1C1C(C(=O)C(C)(C)C)=C(O)C(=O)N1c1ccc(-c2ccco2)cc1` (stereo not shown) [Compound I-117], for which the IC50 turned out to be 383 nM.

In the case of `COc1ncccc1C1C(C(=O)C(C)(C)C)=C(O)C(=O)N1c1ccc(-c2ccsc2)cc1` (stereo not shown) [Compound I-116], the IC50 turned out to be 77 nM.

Regarding `CC(C)(C)c1n[nH]c2c1C(c1ccccc1OCCO)N(c1ccc(-c3cccs3)cc1)C2=O` (stereo not shown) [II-012], the IC50 worked out at 4 nM.

As to `CC(C)(C)c1n[nH]c2c1C(c1cccnc1OCCO)N(c1ccc(-c3ccsc3)cc1)C2=O` (stereo not shown) [II-039], the IC50 came to 5 nM.

`Cc1ccc(-c2ccc(N3C(=O)C(O)=C(C(=O)C(C)C)C3c3ccccc3OC(F)F)cc2)o1` (stereo not shown) [Compound I-358]: the IC50 was 25 nM.

Consider `COCOc1ccccc1C1C(C(=O)CC(C)C)=C(O)C(=O)N1c1ccc(-c2ccoc2)cc1` (stereo not shown) [Compound I-349], for which the IC50 is 37 nM.

`COCCOc1ccccc1C1C(C(=O)C(C)C)=C(O)C(=O)N1c1ccc(-c2noc(C)n2)cc1` (stereo not shown) [Compound I-275]: the IC50 stood at 172 nM.

Take `CC(C)(C)C(=O)C1=C(O)C(=O)N(c2ccc(-c3ccsc3)cc2)C1c1cccnc1OCCO` (stereo not shown) [Compound I-166]: the IC50 is 19 nM.

As for `COCCOc1cc(F)ccc1C1C(C(=O)C(C)C)=C(O)C(=O)N1c1ccc(-c2ccoc2)cc1` (stereo not shown) [Compound I-367], the IC50 is 19 nM.

As for `CC(C)(C)C(=O)C1=C(O)C(=O)N(c2ccc(-c3ccon3)cc2)C1c1ccccc1S(C)(=O)=O` (stereo not shown) [Compound I-111], the IC50 turned out to be 624 nM.

Consider `CCc1nc2cc(N3C(=O)C(O)=C(C(=O)C(C)C)C3c3ccccc3OC(C)C)ccc2o1` (stereo not shown) [Compound I-464], for which the IC50 was 453 nM.

As for `COc1ccccc1C1c2c(C(C)(C)C)n[nH]c2C(=O)N1c1ccc(-c2ccccc2)cc1` (stereo not shown) [II-208], the IC50 came to 112 nM.

On to `COCCOc1ncccc1C1C(C(=O)C(C)(C)C)=C(O)C(=O)N1c1ccc(-c2cccs2)cc1` (stereo not shown) [Compound I-149], for which the IC50 was 15 nM.

For `CN(C)C(=O)COc1ccccc1C1c2c(C(C)(C)C)n[nH]c2C(=O)N1c1ccc(-c2ccsc2)cc1` (stereo not shown) [II-166], the half-maximal inhibitory concentration (IC50) was determined as 7 nM.

Consider `COc1ccc(F)cc1C1C(C(=O)C(C)C)=C(O)C(=O)N1c1ccc(-c2ccc(C)o2)cc1` (stereo not shown) [Compound I-454], for which the IC50 is 36 nM.

As to `CC(C)(C)c1n[nH]c2c1C(c1ccccc1OCC(=O)O)N(c1ccc(-c3cccs3)cc1)C2=O` (stereo not shown) [II-022], the IC50 is 4 nM.

With `COCc1ccccc1C1C(C(=O)C(C)C)=C(O)C(=O)N1c1ccc(C2CCCC2)cc1` (stereo not shown) [Compound I-528], the IC50 is 70 nM.

Regarding `COc1ccc(C(=O)C2=C(O)C(=O)N(c3ccc(-c4cccn4C)cc3)C2C2CCCCC2)cc1` (stereo not shown) [Compound I-014], the IC50 was found to be 134 nM.

As to `COCCOc1ccccc1C1C(C(=O)CC(C)C)=C(O)C(=O)N1c1ccc(-c2nc(C)no2)cc1` (stereo not shown) [Compound I-273], the IC50 is 491 nM.

As to `CCOC(=O)C1C(C(=O)C(C)C)=C(O)C(=O)N1c1ccc(-c2ccsc2)cc1` (stereo not shown) [Compound I-216], the IC50 came to 679 nM.

Regarding `CN(C)C(=O)c1ccccc1C1C(C(=O)CC(C)(C)C)=C(O)C(=O)N1c1ccc(-c2ccsc2)cc1` (stereo not shown) [Compound I-466], the IC50 came to 260 nM.

Turning to `CC(C)c1n[nH]c2c1C(c1ccccn1)N(c1ccc(-c3ccsc3)cc1)C2=O` (stereo not shown) [II-233], the IC50 worked out at 92 nM.

For the molecule `O=C(C1=C(O)C(=O)N(c2ccc(-c3ccon3)cc2)C1C1CCCCC1)c1ccc(OC(F)(F)F)cc1` (stereo not shown) [Compound I-026], the IC50 came to 339 nM.

Consider `C[S+]([O-])CCOc1ccccc1C1C(C(=O)C(C)(C)C)=C(O)C(=O)N1c1ccc(-c2ccon2)cc1` (stereo not shown) [Compound I-152], for which the IC50 worked out at 219 nM.

Take `CC(C)(C)C(=O)C1=C(O)C(=O)N(c2ccc(-c3ccon3)cc2)C1c1ccccc1OCC#N` (stereo not shown) [Compound I-103]: the IC50 was found to be 355 nM.

For the molecule `COc1ccccc1C1c2c(C(C)(C)C)n[nH]c2C(=O)N1c1ccc(-c2ccsc2)nc1` (stereo not shown) [II-254], the IC50 came to 2 nM.

Turning to `COCc1ncccc1C1C(C(=O)CC(C)C)=C(O)C(=O)N1c1ccc(-c2ccsc2)cc1` (stereo not shown) [Compound I-324], the IC50 amounted to 109 nM.

As for `CC(C)C(=O)C1=C(O)C(=O)N(c2ccc(-c3ccoc3)cc2)C1c1ccccc1OCCO` (stereo not shown) [Compound I-190], the IC50 was 40 nM.

As to `CCc1ccccc1C1c2c(C(C)(C)C)n[nH]c2C(=O)N1c1ccc(-c2ccon2)cc1` (stereo not shown) [II-106], the IC50 amounted to 226 nM.

`CC(C)(C)c1n[nH]c2c1C(c1ccccc1OCC(=O)O)N(c1ccc(-c3ccon3)cc1)C2=O` (stereo not shown) [II-029]: the IC50 is 90 nM.

For `COc1ncccc1C1c2c(C(C)(C)C)n[nH]c2C(=O)N1c1ccc(-c2ccoc2)nc1` (stereo not shown) [II-269], the IC50 came out at 363 nM.
